According to US5484803A, “Transcutaneous in vivo activation of photosensitive agents in blood” (priority 1995, dated 1996):
Values joined by “and” are separate entries in the source; they are usually repeats but may differ in a detail not shown here. Identical values can stand only once.

Tests used:
mouse blood [1] = test: Blood parameters immediately after light exposure (acute effect); type: in vivo, mice
Description: (§1) Blood Tests: Blood was drawn into syringes containing 50 μl of heparin (1000 units/ml saline). Blood samples (0.45 ml) from at least 1 mouse per time point were sent to the Diagnostic Laboratory at the University Hospital, University of British Columbia site, for analysis by a Coulter Counter. Blood morphology was determined on blood films prepared from selected samples by a laboratory technologist.
Fourteen mice (weight 22±1 g) were used in this study. Twelve mice were injected with 20 μg (0.9 mg/kg) of liposomal BPD (in 200 μl) and kept in the dark for 1 hour before exposure to light. The mice each were exposed to light for 30 min, 1 hour or 1.5 hours, which delivered light doses to the skin surface of 54, 108 and 162 J/cm^2, respectively. Immediately after light exposure, blood samples were obtained. At the corresponding times, blood samples were obtained from two mice injected with BPD, but not exposed to light. Two additional mice were tested one hour after injection.

mouse blood [2] = test: Blood cell morphology 2 weeks post-treatment; type: in vivo, Balb/c mice
Description: as §1
(§2) Six Balb/c mice (22±1 g weight) were prepared as described above. Five mice were injected twice (24 hour interval) with BPD from DMSO stock (not liposomal BPD) and exposed to light 1 hour after the injection. One mouse was not injected but was exposed to light (light-only control). During the first treatment the mice were injected with 15 μg BPD/mouse in 200 μl of PBS. During the second treatment the mice were injected with 20 μg BPD/mouse (0.9 mg/kg). A single mouse was used as a control for both treatments.
(§3) Immediately post-injection (on both occasions) the animals were kept for 1 hour in the dark and then were placed in individual plastic containers (9×4×5 cm), which were placed in the light box and exposed to light. The individual mice were removed from the light box at different intervals: 15, 30, 45, 60 and 75 min, respectively. The light doses delivered at the surface of the skin were 27, 54, 81, 108 and 135 J/cm^2, respectively. On the second occasion the same light doses were used; however, mice receiving higher light doses on day 1 received lower doses on day 2. The control mouse was exposed to light for 60 min on both occasions. During light exposure, the mice were constantly observed for signs of discomfort or itching. After the second light exposure, the mice were observed daily for a period of 2 weeks for appearance of the skin and general pattern of behavior.
(§4) Two weeks post-treatment blood samples were obtained from each mouse by a heart puncture, under halothane anesthesia. Then the mice were sacrificed and autopsied. Their spleen, liver and kidneys were weighed.

[3] = Body and organ weights and gross autopsy two weeks post-treatment; type: in vivo, Balb/c mice
Description: as §2, §3, §4

[4] = Pharmacokinetic studies: BPD concentration in plasma; type: in vivo, Balb/c mice; conditions: for Plasma Conc.: liposomal BPD
Description: Determination of BPD Concentration in Plasma: Plasma samples were obtained by centrifugation of blood collected from mice and stored frozen at -20° C. until assessment. The concentration of BPD in the samples was determined by fluorometry using a Jasco Model FP-770 (Japan Spectroscopic Co.) spectrofluorometer and a microcuvette (Far UV Quartz Cell, Starna Cells Inc.). Excitation and emission wavelengths were 439 and 699 nm, respectively. Plasma samples were diluted 20-fold with PBS containing 1% Triton® X-100 immediately before fluorescence was determined. BPD standards were prepared in 5% mouse plasma in PBS with 1% Triton® X-100. Under these conditions the relationship between the concentration of BPD and units of fluorescence was linear (correlation coefficient >0.99) for concentrations between 0.1 ng/ml and 1 μg/ml. The limit of detection was below 0.1 ng/ml sample which corresponded to 2 ng/ml plasma. […] The 699 nm fluorescence peak of BPD was virtually free from any interference.
In order to determine the level of BPD in plasma during the light treatment, the following experiment was carried out. Fourteen Balb/c mice (22±1 g of weight) were injected with liposomal BPD at 20 μg/mouse (0.9 mg/kg) in 200 μl PBS per mouse. Blood samples were obtained by heart puncture at various time intervals between 15 min and 2 hours post-injection. Exposure to light started at 15 min post-injection for some mice. The BPD concentration in plasma was determined as described above.

virus-infected T cells = conditions: after exposure of BPD-treated, virus-infected T cells to light; cited from earlier work
mice skin = test: Skin photosensitivity and skin changes, transcutaneous activation study; type: in vivo
[5] = 0.9 mg/kg liposomal BPD, 54-162 J/cm^2
[6] = BPD 0.87 mg/kg, light 0, 1 1/2 h post inj.
[7] = BPD 0.87 mg/kg, light 0, 2 1/2 h post inj.
[8] = BPD 0.87 mg/kg, light 0, 1 h post inj.
[9] = BPD 0.93 mg/kg, light 0, 2 h post inj.
[10] = BPD 0.93 mg/kg, light 162 J/cm^2, 2 1/2 h post inj.
[11] = BPD 0.95 mg/kg, light 54 J/cm^2, 1 1/2 h post inj.
[12] = BPD 0.95 mg/kg, light 108 J/cm^2, 2 h post inj.
[13] = Drug + Light, individual mice, 2 weeks post-treatment

## benzoprophyrin derivative monoacid ring A [BPD]
Mouse blood [1]; [5]
  acute effect on blood parameters: no acute effect on blood parameters was observed
Mouse blood [1]; [6]
  HB: 117 g/L
  Hct: 0.329
  MCV: 48.7 fL
  PLT: 428 10^6 /ml
  RBC: 6.77 10^9 /ml
  WBC: 4.4 10^6 /ml
Mouse blood [1]; [7]
  HB: 129 g/L
  Hct: 0.372
  MCV: 48.5 fL
  PLT: 447 10^6 /ml
  RBC: 7.68 10^9 /ml
  WBC: 3.9 10^6 /ml
Mouse blood [1]; [8]
  HB: 124 g/L
  Hct: 0.368
  MCV: 48.4 fL
  PLT: 608 10^6 /ml
  RBC: 7.61 10^9 /ml
  WBC: 5.5 10^6 /ml
Mouse blood [1]; [9]
  HB: 129 g/L
  Hct: 0.382
  MCV: 49.1 fL
  PLT: 475 10^6 /ml
  RBC: 7.79 10^9 /ml
  WBC: 11.4 10^6 /ml
Mouse blood [1]; [10]
  HB: 116 g/L
  Hct: 0.353
  MCV: 49.2 fL
  PLT: 506 10^6 /ml
  RBC: 7.17 10^9 /ml
  WBC: 4.9 10^6 /ml
Mouse blood [1]; [11]
  HB: 127 g/L
  Hct: 0.363
  MCV: 49.9 fL
  PLT: 613 10^6 /ml
  RBC: 7.28 10^9 /ml
  WBC: 7.0 10^6 /ml
Mouse blood [1]; [12]
  HB: 131 g/L
  Hct: 0.378
  MCV: 50.1 fL
  PLT: 440 10^6 /ml
  RBC: 7.53 10^9 /ml
  WBC: 8.5 10^6 /ml
Mouse blood [2]; mouse 1, light 27 then 135 J/cm^2
  Monocytes: 1 % WBC
Mouse blood [2]; mouse 1, light 27 then 135 J/cm^2, normal 12-15
  Granulocytes: 9 % WBC
Mouse blood [2]; mouse 1, light 27 then 135 J/cm^2, normal 65-85
  Lymphocytes: 90 % WBC
Mouse blood [2]; mouse 2, light 54 then 108 J/cm^2
  Monocytes: 1 % WBC
Mouse blood [2]; mouse 2, light 54 then 108 J/cm^2, normal 12-15
  Granulocytes: 11 % WBC
Mouse blood [2]; mouse 2, light 54 then 108 J/cm^2, normal 65-85
  Lymphocytes: 88 % WBC
Mouse blood [2]; mouse 3, light 81 then 81 J/cm^2
  Monocytes: 3 % WBC
Mouse blood [2]; mouse 3, light 81 then 81 J/cm^2, normal 12-15
  Granulocytes: 19 % WBC
Mouse blood [2]; mouse 3, light 81 then 81 J/cm^2, normal 65-85
  Lymphocytes: 78 % WBC
Mouse blood [2]; mouse 4, light 108 then 54 J/cm^2
  Monocytes: 2 % WBC
Mouse blood [2]; mouse 4, light 108 then 54 J/cm^2, normal 12-15
  Granulocytes: 36 % WBC
Mouse blood [2]; mouse 4, light 108 then 54 J/cm^2, normal 65-85
  Lymphocytes: 62 % WBC
Mouse blood [2]; mouse 5, light 135 then 27 J/cm^2
  Monocytes: 1 % WBC
Mouse blood [2]; mouse 5, light 135 then 27 J/cm^2, normal 12-15
  Granulocytes: 7 % WBC
Mouse blood [2]; mouse 5, light 135 then 27 J/cm^2, normal 65-85
  Lymphocytes: 92 % WBC
[3]; 2 weeks after double treatment, liver, spleen, kidneys
  gross morphology and weights of internal organs: normal
[3]; 2 weeks post-treatment
  toxicity (gross examination of liver, spleen, kidneys; blood parameters): no toxicity was detected
[3]; [13]
  Kidneys weight: 0.172 g and 0.343 g and 0.380 g and 0.396 g and 0.310 g
  Liver weight: 1.105 g and 1.190 g and 1.208 g and 1.348 g and 0.958 g
  Spleen weight: 0.077 g and 0.106 g and 0.094 g and 0.108 g and 0.078 g
  Total Body Weight: 22 g and 23 g and 24 g and 25 g and 21 g
[4]; 1 hour post-injection, as in Example 1, 0.9 mg/kg
  plasma level of BPD at the beginning of exposure to light: about 4 μg/ml
[4]; 0.83 mg/kg, 20 min post injection
  Plasma Conc.: 4680 ng/mL
[4]; 0.83 mg/kg, 2 h 5 min post injection (text: 2 hours), 125 min
  Plasma Conc.: 2440 ng/mL
[4]; 0.87 mg/kg, 15 min post injection
  Plasma Conc.: 6320 ng/mL
[4]; 0.87 mg/kg, 1 h 38 min post injection, 98 min
  Plasma Conc.: 1800 ng/mL
[4]; 0.87 mg/kg, 1 h 42 min post injection, 102 min
  Plasma Conc.: 3220 ng/mL
[4]; 0.91 mg/kg, 1 h 24 min post injection, 84 min
  Plasma Conc.: 2920 ng/mL
[4]; 0.91 mg/kg, 1 h 32 min post injection, 92 min
  Plasma Conc.: 2980 ng/mL
[4]; 0.95 mg/kg, 1 h 23 min post injection, 83 min
  Plasma Conc.: 3260 ng/mL
virus-infected T cells
  effect on virus-infected T cell membrane: holes developed in the T cell membrane, which increased in size until the membrane completely decomposed
Mice skin; [5]
  skin photosensitivity: did not cause skin photosensitivity
Mice skin; immediately or during the 2 week post-exposure period, 0.9 mg/kg, 30 mW/cm^2
  changes of the skin: no changes of the skin were observed
